Assay results reported in PubChem BioAssay (NCI).
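Exposure lasted 48 hours, with cells grown in 96-well plates and compounds tested at five concentrations. GI50 marks 50% less growth. TGI is the concentration that stops growth completely.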

What was measured:
Assay in all cases: growth of human tumour cells (NCI), 48 h
[1] = tested on: 786-0 renal
[2] = tested on: A498 renal
[3] = tested on: A549 NSCLC
[4] = tested on: ACHN renal
[5] = tested on: BT-549 breast
[6] = tested on: CAKI-1 renal
[7] = tested on: CCRF-CEM leukemia
[8] = tested on: COLO 205 colon
[9] = tested on: DU-145 prostate
[10] = tested on: EKVX NSCLC
[11] = tested on: HCC-2998 colon
[12] = tested on: HCT-116 colon
[13] = tested on: HCT-15 colon
[14] = tested on: HL-60(TB) leukemia
[15] = tested on: HOP-62 NSCLC
[16] = tested on: HOP-92 NSCLC
[17] = tested on: HS 578T breast
[18] = tested on: HT29 colon
[19] = tested on: IGROV1 ovarian
[20] = tested on: K-562 leukemia
[21] = tested on: KM12 colon
[22] = tested on: LOX IMVI melanoma
[23] = tested on: M14 melanoma
[24] = tested on: MALME-3M melanoma
[25] = tested on: MCF7 breast
[26] = tested on: MDA-MB-231 breast
[27] = tested on: MDA-MB-435
[28] = tested on: MDA-MB-468 breast
[29] = tested on: MOLT-4 leukemia
[30] = tested on: NCI-H226 lung
[31] = tested on: NCI-H23 lung
[32] = tested on: NCI-H522 lung
[33] = tested on: NCI/ADR-RES ovarian
[34] = tested on: OVCAR-3 ovarian
[35] = tested on: OVCAR-4 ovarian
[36] = tested on: OVCAR-5 ovarian
[37] = tested on: OVCAR-8 ovarian
[38] = tested on: PC-3 prostate
[39] = tested on: RXF 393 renal
[40] = tested on: SF-268 CNS
[41] = tested on: SF-295 CNS
[42] = tested on: SF-539 CNS
[43] = tested on: SK-MEL-2 melanoma
[44] = tested on: SK-MEL-28 melanoma
[45] = tested on: SK-MEL-5 melanoma
[46] = tested on: SK-OV-3 ovarian
[47] = tested on: SN12C renal
[48] = tested on: SNB-19 CNS
[49] = tested on: SNB-75 CNS
[50] = tested on: SR leukemia
[51] = tested on: SW-620 colon
[52] = tested on: T-47D breast
[53] = tested on: TK-10 renal
[54] = tested on: U251 CNS
[55] = tested on: UACC-257 melanoma
[56] = tested on: UACC-62 melanoma
[57] = tested on: UO-31 renal

With CN1CCN(Cc2ccc(C(=O)Nc3cccc(Nc4ccc5c(O)cccc5n4)c3)cc2C(F)(F)F)CC1 the GI50 [1] was 2.11 µM, the TGI [1] was 4.28 µM and the GI50 [2] was 17.5 µM. It also gave a TGI [2] of 33.3 µM, a GI50 [3] of 4.5 µM and a TGI [3] of 20 µM. For the same compound, the GI50 [4] was 2.07 µM, the TGI [4] was 4.92 µM and the GI50 [5] was 15.6 µM. The TGI [5] was 30.2 µM, the GI50 [6] was 2.13 µM and the TGI [6] was 5.17 µM. The GI50 [7] was 2.91 µM, the TGI [7] was greater than 100 µM and the GI50 [8] was 1.99 µM. The TGI [8] was 3.94 µM, the GI50 [9] was 4.68 µM and the TGI [9] was 17.7 µM. The GI50 [10] was 3.75 µM, the TGI [10] was 14.1 µM and the GI50 [11] was 1.89 µM. The TGI [11] was 3.36 µM, the GI50 [12] was 2.7 µM and the TGI [12] was greater than 100 µM. For the same compound, the GI50 [13] was 1.82 µM, the TGI [13] was 3.54 µM and the GI50 [14] was 2.47 µM. It also gave a TGI [14] of 5.67 µM, a GI50 [15] of 3 µM and a TGI [15] of 8.85 µM. The GI50 [16] was 1.32 µM, the TGI [16] was 5.8 µM and the GI50 [17] was 2.96 µM. The TGI [17] was 21.8 µM, the GI50 [18] was 2.06 µM and the TGI [18] was 4.41 µM. The GI50 [19] was 4.7 µM, the TGI [19] was 17 µM and the GI50 [20] was 2.42 µM. The TGI [20] was 24.5 µM, the GI50 [21] was 2.3 µM and the TGI [21] was 5.23 µM. For the same compound, the GI50 [22] was 1.65 µM, the TGI [22] was 3.01 µM and the GI50 [23] was 2.21 µM. For the same compound, the TGI [23] was 5.67 µM, the GI50 [24] was 1.67 µM and the TGI [24] was 3.12 µM. The GI50 [25] was 1.74 µM, the TGI [25] was 3.41 µM and the GI50 [26] was 1.62 µM. For the same compound, the TGI [26] was 3.75 µM, the GI50 [27] was 1.78 µM and the TGI [27] was 3.78 µM. For the same compound, the GI50 [28] was 1.62 µM, the TGI [28] was 3.16 µM and the GI50 [29] was 1.86 µM. The TGI [29] was 5.29 µM, the GI50 [30] was 19.2 µM and the TGI [30] was 41.7 µM. The GI50 [31] was 2.26 µM, the TGI [31] was 4.79 µM and the GI50 [32] was 1.93 µM. The TGI [32] was 3.97 µM, the GI50 [33] was 3.45 µM and the TGI [33] was 12 µM. It also gave a GI50 [34] of 3.1 µM, a TGI [34] of 8 µM and a GI50 [35] of 7.39 µM. For the same compound, the TGI [35] was 21 µM, the GI50 [36] was 3.24 µM and the TGI [36] was 14.4 µM. It also gave a GI50 [37] of 3.56 µM, a TGI [37] of 14 µM and a GI50 [38] of 2.53 µM. It also gave a TGI [38] of 14.6 µM, a GI50 [39] of 1.66 µM and a TGI [39] of 3.58 µM. It also gave a GI50 [40] of 3.81 µM, a TGI [40] of 19 µM and a GI50 [41] of 1.65 µM. It also gave a TGI [41] of 3.16 µM, a GI50 [42] of 1.67 µM and a TGI [42] of 3.08 µM. The GI50 [43] was 1.92 µM, the TGI [43] was 3.68 µM and the GI50 [44] was 1.77 µM. For the same compound, the TGI [44] was 3.21 µM, the GI50 [45] was 1.68 µM and the TGI [45] was 3.07 µM. It also gave a GI50 [46] of 14.4 µM, a TGI [46] of 29.2 µM and a GI50 [47] of 2.34 µM. It also gave a TGI [47] of 6.03 µM, a GI50 [48] of 2.39 µM and a TGI [48] of 5.15 µM. The GI50 [49] was 1.85 µM, the TGI [49] was 13.7 µM and the GI50 [50] was 4.39 µM. For the same compound, the TGI [50] was greater than 100 µM, the GI50 [51] was 2.24 µM and the TGI [51] was 4.18 µM. The GI50 [52] was 10.7 µM, the TGI [52] was 26.4 µM and the GI50 [53] was 3.36 µM. For the same compound, the TGI [53] was 13.1 µM, the GI50 [54] was 2.38 µM and the TGI [54] was 5.2 µM. For the same compound, the GI50 [55] was 1.92 µM, the TGI [55] was 3.86 µM and the GI50 [56] was 1.73 µM. For the same compound, the TGI [56] was 3.49 µM, the GI50 [57] was 1.99 µM and the TGI [57] was 4.29 µM.
